# Laboratory results from publication PMC3530165 (Chemistry & biology, 2012).
# Where two headings read alike, the source gives them in different places.
# How the values were obtained:
# [1] = molecular target: T1, ICL (Mycobacterium tuberculosis, UniProt P9WKK7); settings: read-out: IC50 against ICL; ref Muñoz-Elías and McKinney, 2005; cited from earlier work
# T1 sequence (P9WKK7 1-428): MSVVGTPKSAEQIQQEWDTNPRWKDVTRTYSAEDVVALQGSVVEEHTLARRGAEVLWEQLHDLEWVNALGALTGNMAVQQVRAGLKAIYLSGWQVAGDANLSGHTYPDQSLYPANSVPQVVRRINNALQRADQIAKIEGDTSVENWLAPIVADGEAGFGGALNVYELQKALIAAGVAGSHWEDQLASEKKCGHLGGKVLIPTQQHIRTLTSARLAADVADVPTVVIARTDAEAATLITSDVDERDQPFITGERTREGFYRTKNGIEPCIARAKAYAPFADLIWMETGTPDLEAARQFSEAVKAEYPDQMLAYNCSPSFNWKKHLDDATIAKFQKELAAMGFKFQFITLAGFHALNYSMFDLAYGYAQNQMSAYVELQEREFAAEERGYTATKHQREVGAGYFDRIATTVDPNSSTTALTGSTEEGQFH
# [2] = test system: mc^2-7000 Mtb; experiment: MABA MIC99 determination, mc^2-7000 strain; type: cell-based, Mycobacterium tuberculosis; settings: for MIC99 mc^2-7000 Mtb acetate: M9 media with acetate; for MIC99: Mycobacterium tuberculosis
# [3] = type: in vitro ADME; settings: equilibrium dialysis
# [4] = UV absorbance peak; settings: UV absorbance peak in solution
# [5] = Compound stability in solution; settings: stability in cell growth media or buffer solutions
# [6] = test system: H37Rv; experiment: MABA MIC99 determination, H37Rv strain; type: cell-based, Mycobacterium tuberculosis
# [7] = test system: M. tuberculosis; type: in vivo; settings: target dose 30 mg/kg, once a day, 9 days post-infection
# [8] = molecular target: T1, ICL; experiment: Isocitrate lyase; type: biochemical; settings: single concentration point of 40 μg/ml
# [9] = physchem
# [10] = read-out: MIC99 mc^2-7000 Mtb acetate
# [11] = read-out: MIC99 mc^2-7000 Mtb dextrose
SMILES,MIC99 mc^2-7000 Mtb dextrose [2],MIC99 mc^2-7000 Mtb acetate [2],λmax [4],Half-life [5],further results
O=C(O)CC[N+](=O)[O-] [3-nitropropionate],,,,,IC50 [1]: 3000 nM
Cc1ccccc1C(=O)CC(=O)C(=O)O [Compound 1],200 µM,>200 µM,326 nM,720 h,Mouse plasma protein binding [3]: 70.7 ± 1.8%; H37Rv MIC99 on acetate ([6]; acetate): 16 µM; H37Rv MIC99 on dextrose ([6]; dextrose): 31 µM
O=C(O)C(=O)CC(=O)c1ccccc1F [Compound 2],200 µM,>200 µM,333 nM,288 h,
O=C(O)C(=O)CC(=O)c1ccccc1Cl [Compound 3],200 µM,>200 µM,324 nM,840 h,
O=C(O)C(=O)CC(=O)c1cccc(Cl)c1 [Compound 6],25 µM,25 µM,341 nM,170 h,
Cc1ccc(C(=O)CC(=O)C(=O)O)cc1 [Compound 8],100 µM,50 µM,340 nM,190 h,
O=C(O)C(=O)CC(=O)c1ccc(Br)cc1 [Compound 9],25 µM,50 µM,345 nM,170 h,
COc1c(N2C[C@@H]3CCCN[C@@H]3C2)c(F)cc2c(=O)c(C(=O)O)cn(C3CC3)c12 [Moxifloxacin],,,,,Decrease in log10 CFU in lungs [7]: 3.07 log10 CFU
"O=C(O)/C(O)=C/C(=O)c1ccccc1 [PDKA, (Z)-2-hydroxy-4-oxo-4-phenylbut-2-enoic acid]",,,340 nM,,"MIC99 [2, 10]: 50 µM; MIC99 [2, 11]: 25 µM; activity against ICL [8]: inactive; Half-life [9]: ~72 h"
"CO[C@H]1/C=C/O[C@@]2(C)Oc3c(C)c(O)c4c(O)c(c(/C=N/N5CCN(C)CC5)c(O)c4c3C2=O)NC(=O)/C(C)=C\C=C\[C@H](C)[C@H](O)[C@@H](C)[C@@H](O)[C@@H](C)[C@H](OC(C)=O)[C@@H]1C [Rifampicin, reference compound]",,,,,"MIC99 [2, 10]: 0.25 µM; MIC99 [2, 11]: 0.125 µM"
